Test results published in US9717243B2, “Piperidinecarboxylic acid derivatives as fungicides” (priority 2013, dated 2017).
Like-named read-outs stand apart in the source and are kept apart here.

How the values were obtained:
Plasmopara viticola = assay: Plasmopara test (grapevines)/preventive; conditions: preventive, evaluated 6 days after inoculation, 0% = untreated control, 100% = no disease
Protocol: Plasmopara Test (Grapevines)/Preventive • Solvent: 24.5 parts by weight of acetone • 24.5 parts by weight of dimethylacetamide • Emulsifier: 1 part by weight of alkylaryl polyglycol ether
After the spray coating has dried on, the plants are inoculated with an aqueous spore suspension of Plasmopara viticola and then remain for 1 day in an incubation cabinet at approximately 20° C. and a relative atmospheric humidity of 100%. The plant is subsequently placed for 4 days in a greenhouse at approximately 21° C. and a relative atmospheric humidity of approximately 90%. The plants are then misted and placed for 1 day in an incubation cabinet.
The test is evaluated 6 days after the inoculation.

[1] = LogP by HPLC on reversed phase columns (EEC directive 79/831 Annex V.A8); type: physicochemical
Protocol: Calibration was done with straight-chain alkan2-ones (with 3 to 16 carbon atoms) with known LogP values (measurement of LogP values using retention times with linear interpolation between successive alkanones). Lambda-max-values were determined using UV-spectra from 200 nm to 400 nm and the peak values of the chromatographic signals.

Phytophthora infestans = type: in vivo; conditions: 100 ppm of active ingredient; preventive, tomatoes; evaluated 3 days after inoculation; 0% = untreated control, 100% = no disease
[2] = Table 1, compounds of formula (I), LC-UV, acidic range, 0.1% formic acid in water and acetonitrile as eluent

Row | Compound | Log P[a] [1] | also measured
1 | C#CCOc1ccc(F)c(F)c1C1CC(c2csc(C3(C(=O)OC)CCN(C(=O)Cn4nc(C(F)F)cc4C(F)F)CC3)n2)=NO1 (stereo not shown) [Example I-3] | 3.61 | Efficacy % (Plasmopara viticola; 1 ppm of active ingredient): 93%
2 | COC(=O)C1(c2nc(C3=NOC(c4ccccc4OS(C)(=O)=O)C3)cs2)CCN(C(=O)Nc2cc(C(F)F)ccc2C(F)F)CC1 (stereo not shown) [Example I-9] | 3.42 | Efficacy % (Plasmopara viticola; 100 ppm of active ingredient): 100%; Efficacy % (Phytophthora infestans): 91%
3 | COC(=O)C1(c2nc(C3=NOC(c4ccccc4OS(C)(=O)=O)C3)cs2)CCN(C(=O)Nc2cc(C)ccc2C)CC1 (stereo not shown) [Example I-11] | 3.29 | Efficacy % (Plasmopara viticola; 100 ppm of active ingredient): 100%; Efficacy % (Phytophthora infestans): 100%
4 | COC(=O)C1(c2nc(C3=NOC(c4ccccc4OS(C)(=O)=O)C3)cs2)CCN(C(=O)Nc2cn(C(F)F)nc2C)CC1 (stereo not shown) [Example I-10] | 2.64 | Efficacy % (Plasmopara viticola; 100 ppm of active ingredient): 96%; Efficacy % (Phytophthora infestans): 94%
5 | C#CCOc1ccc(F)c(F)c1C1CC(c2csc(C3(C(=O)OC)CCN(C(=O)Cn4nc(C(F)F)cc4C)CC3)n2)=NO1 (stereo not shown) [Example I-66] | 3.33 | Efficacy % (Plasmopara viticola; 1 ppm of active ingredient): 76%
6 | COC(=O)C1(c2nc(C3=NOC(c4c(Cl)cccc4OS(C)(=O)=O)C3)cs2)CCN(C(=O)Cn2nc(C(F)F)cc2C)CC1 (stereo not shown) [Example I-60] | 3.19 | –
7 | C=CCOC(=O)C1(c2nc(C3=NOC(c4c(Cl)cccc4OS(C)(=O)=O)C3)cs2)CCN(C(=O)Cn2nc(C(F)F)cc2C(F)F)CC1 (stereo not shown) [Example I-41] | 3.80 | –
8 | C#CCOc1ccc(F)c(F)c1C1CC(c2csc(C3(C(=O)OCCSC)CCN(C(=O)Cn4nc(C(F)F)cc4C(F)F)CC3)n2)=NO1 (stereo not shown) [Example I-52] | 3.99 | –
9 | CC(C)=CCNC(=O)C1(C#N)CCN(C(=O)Nc2ccc(F)cc2)CC1 [IV-44] | 2.16 | –
10 | CSCCOC(=O)C1(c2nc(C3=NOC(c4ccccc4-c4ccccc4)C3)cs2)CCN(C(=O)Cn2nc(C(F)F)cc2C(F)F)CC1 (stereo not shown) [Example I-48] | – | Log P[a] [1, 2]: 4.77
11 | CC(C)(C)OC(=O)C1(C#N)CCN(C(=O)Nc2ccc(Cl)c(C(F)(F)F)c2)CC1 [IV-28] | 4.06 | –
12 | COC(=O)C1(c2nc(C3=NOC(c4ccccc4-c4ccccc4)C3)cs2)CCN(C(=O)Cn2nc(C(F)(F)F)cc2C)CC1 (stereo not shown) [Example I-68] | – | Log P[a] [1, 2]: 4.49
13 | COC(=O)C1(c2nc(C3=NOC(c4ccccc4OS(C)(=O)=O)C3)cs2)CCN(C(=O)Nc2cc(C(F)(F)F)nn2C)CC1 (stereo not shown) [Example I-79] | 3.00 | –
14 | O=C(Cn1nc(C(F)F)cc1C(F)F)N1CCC(C(=O)OCc2ccccc2)(c2nc(C3=NOC(c4c(F)cccc4F)C3)cs2)CC1 (stereo not shown) [Example I-37] | 4.21 | –
15 | COC(=O)C1(c2nc(C3=NOC(c4c(Cl)cccc4OS(C)(=O)=O)C3)cs2)CCN(C(=O)Cn2nc(C(F)F)cc2C(F)F)CC1 (stereo not shown) [Example I-6] | – | Log P[a] [1, 2]: 3.44
16 | COC(=O)C1(c2nc(C3=NOC(c4ccccc4OS(C)(=O)=O)C3)cs2)CCN(C(=O)Cn2nc(C(F)F)cc2C(F)F)CC1 (stereo not shown) [Example I-7, methyl 1-{[3,5-bis(difluoromethyl)-1H-pyrazol-1-yl]acetyl}-4-[4-(5-{2-[(methylsulfonyl)oxy]phenyl}-4,5-dihydro-1,2-oxazol-3-yl)-1,3-thiazol-2-yl]piperidine-4-carboxylate] | – | Efficacy % (Plasmopara viticola; 100 ppm of active ingredient): 100%; Efficacy % (Phytophthora infestans): 95%; chromatographic logP ([1]; Table 1, compounds of formula (I), LC-UV, acidic range, 0.1% formic acid in water and acetonitrile as eluent, read-out: Log P[a]): 3.27
17 | COC(=O)C1(c2nc(C3=NOC(c4c(Cl)cccc4OS(C)(=O)=O)C3)cs2)CCN(C(=O)Cn2nc(C)cc2C(F)F)CC1 (stereo not shown) [Example I-74] | 3.15 | –
18 | O=C(Cn1nc(C(F)F)cc1C(F)F)N1CCC(C(=O)OC2CCOC2)(c2nc(C3=NOC(c4c(F)cccc4F)C3)cs2)CC1 (stereo not shown) [Example I-55] | 3.39 | –
19 | CC(C)=CCN(C)C(=O)C1(C#N)CCN(C(=O)Nc2ccc(Cl)cc2)CC1 [IV-46] | 3.03 | –
20 | C=CCOC(=O)C1(C#N)CCN(C(=O)Cn2nc(C(F)F)cc2C(F)F)CC1 [IV-5] | 2.71 | –
21 | COC(=O)C1(C(N)=S)CCN(C(=O)Nc2cn(C)nc2C(F)F)CC1 [II-16] | 1.22 | –
22 | CCOC(=O)C1(c2nc(C3=NOC(c4ccccc4)C3)cs2)CCN(C(=O)Cn2nc(C(F)F)cc2C(F)F)CC1 (stereo not shown) [Example I-25] | 3.76 | –
23 | Cc1cc(C(F)(F)F)nn1CC(=O)N1CCC(C#N)(C(=O)O)CC1 [IV-14] | 1.50 | –
24 | C#CCOc1ccccc1C1CC(c2csc(C3(C(=O)OC)CCN(C(=O)Nc4cn(C(F)F)nc4C)CC3)n2)=NO1 (stereo not shown) [Example I-17] | 3.02 | –
